Tested on: 485368-065-R3-J5-PDC spheroids with HUVEC/MSC, viability
Assay: Anticancer human tumor 485368-065-R3-J5-PDC patient-derived pancreatic carcinoma cell line growth inhibition [RAS]
Details: for IC50: curve of first compound; for viability, T/C: stronger effect = lower value
Outline: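 Agents were tested in combination matrices in half-log decrements from a top concentration at or near clinical Cmax (10 microM if undetermined). Targets were multi-cell spheroids of tumour lines plus HUVEC and MSC stromal cells.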

[1] = second compound 0.000949 µM, first compound 0.0316 µM
[2] = second compound 0.000949 µM, first compound 0.1 µM
[3] = second compound 0.000949 µM, first compound 0.316 µM
[4] = second compound 0.000949 µM, first compound 1 µM
[5] = second compound 0.000949 µM, first compound 3.16 µM
[6] = second compound 0.000949 µM, first compound 10 µM
[7] = second compound 0.003 µM, first compound 0.0316 µM
[8] = second compound 0.003 µM, first compound 0.1 µM
[9] = second compound 0.003 µM, first compound 0.316 µM
[10] = second compound 0.003 µM, first compound 1 µM
[11] = second compound 0.003 µM, first compound 3.16 µM
[12] = second compound 0.003 µM, first compound 10 µM
[13] = second compound 0.00949 µM, first compound 0.0316 µM
[14] = second compound 0.00949 µM, first compound 0.1 µM
[15] = second compound 0.00949 µM, first compound 0.316 µM
[16] = second compound 0.00949 µM, first compound 1 µM
[17] = second compound 0.00949 µM, first compound 3.16 µM
[18] = second compound 0.00949 µM, first compound 10 µM
[19] = second compound 0.03 µM, first compound 0.0316 µM
[20] = second compound 0.03 µM, first compound 0.1 µM
[21] = second compound 0.03 µM, first compound 0.316 µM
[22] = second compound 0.03 µM, first compound 1 µM
[23] = second compound 0.03 µM, first compound 3.16 µM
[24] = second compound 0.03 µM, first compound 10 µM
[25] = second compound 0.0949 µM, first compound 0.0316 µM
[26] = second compound 0.0949 µM, first compound 0.1 µM
[27] = second compound 0.0949 µM, first compound 0.316 µM
[28] = second compound 0.0949 µM, first compound 1 µM
[29] = second compound 0.0949 µM, first compound 3.16 µM
[30] = second compound 0.0949 µM, first compound 10 µM
[31] = second compound 0.3 µM, first compound 0.0316 µM
[32] = second compound 0.3 µM, first compound 0.1 µM
[33] = second compound 0.3 µM, first compound 0.316 µM
[34] = second compound 0.3 µM, first compound 1 µM
[35] = second compound 0.3 µM, first compound 3.16 µM
[36] = second compound 0.3 µM, first compound 10 µM
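Further: spheroids exposed to agents for seven days before readout.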

For `CC(=O)OC12COC1CC(O)C1(C)C(=O)C(O)C3=C(C)C(OC(=O)C(O)C(NC(=O)OC(C)(C)C)c4ccccc4)CC(O)(C(OC(=O)c4ccccc4)C21)C3(C)C` (centres undefined) + CCn1c(-c2cc(N3CCN(C)CC3)cnc2C(C)OC)c2c3cc(ccc31)-c1csc(n1)CC(NC(=O)C1CC1C)C(=O)N1CCCC(N1)C(=O)OCC(C)(C)C2, the IC50 (second compound 0.000949 µM) was < 31.6 nM, the IC50 (second compound 0.003 µM) was < 31.6 nM and the IC50 (second compound 0.00949 µM) was < 31.6 nM. The IC50 (second compound 0.03 µM) was < 31.6 nM, the IC50 (second compound 0.0949 µM) was < 31.6 nM and the IC50 (second compound 0.3 µM) was < 31.6 nM. The viability, T/C [1] was 11.7%, the viability, T/C [2] was 10.4% and the viability, T/C [3] was 12.1%. It also gave a viability, T/C [4] of 14.3%, a viability, T/C [5] of 15.2% and a viability, T/C [6] of 19.9%. For the same molecule, the viability, T/C [7] was 10.7%, the viability, T/C [8] was 13.2% and the viability, T/C [9] was 12.2%. It also gave a viability, T/C [10] of 14.1%, a viability, T/C [11] of 15.3% and a viability, T/C [12] of 13.6%. It also gave a viability, T/C [13] of 9.77%, a viability, T/C [14] of 12.6% and a viability, T/C [15] of 10%. The viability, T/C [16] was 8.97%, the viability, T/C [17] was 11.4% and the viability, T/C [18] was 10.5%. For the same molecule, the viability, T/C [19] was 7.89%, the viability, T/C [20] was 8.87% and the viability, T/C [21] was 8.33%. The viability, T/C [22] was 9.73%, the viability, T/C [23] was 10.6% and the viability, T/C [24] was 10.7%. The viability, T/C [25] was 7.57%, the viability, T/C [26] was 8.27% and the viability, T/C [27] was 7.87%. The viability, T/C [28] was 7.97%, the viability, T/C [29] was 10.9% and the viability, T/C [30] was 8.11%. It also gave a viability, T/C [31] of 7.3%, a viability, T/C [32] of 7.09% and a viability, T/C [33] of 7.44%. It also gave a viability, T/C [34] of 8.55%, a viability, T/C [35] of 10.2% and a viability, T/C [36] of 6.81%.
In the case of `CCC(CC)c1cc(NC2CCC(N)C2)n2nccc2n1` (centres undefined) + CCn1c(-c2cc(N3CCN(C)CC3)cnc2C(C)OC)c2c3cc(ccc31)-c1csc(n1)CC(NC(=O)C1CC1C)C(=O)N1CCCC(N1)C(=O)OCC(C)(C)C2, the IC50 (second compound 0.000949 µM) is reported as 1050 nM, the IC50 (second compound 0.003 µM) is reported as < 31.6 nM and the IC50 (second compound 0.00949 µM) is reported as < 31.6 nM. The IC50 (second compound 0.03 µM) was < 31.6 nM, the IC50 (second compound 0.0949 µM) was < 31.6 nM and the IC50 (second compound 0.3 µM) was < 31.6 nM. It also gave a viability, T/C [1] of 42%, a viability, T/C [2] of 36.8% and a viability, T/C [3] of 56.3%. For the same molecule, the viability, T/C [4] was 72.7%, the viability, T/C [5] was 3.44% and the viability, T/C [6] was 5.24%. For the same molecule, the viability, T/C [7] was 23.8%, the viability, T/C [8] was 24.9% and the viability, T/C [9] was 32.9%. For the same molecule, the viability, T/C [10] was 38.9%, the viability, T/C [11] was 3.26% and the viability, T/C [12] was 6.21%. It also gave a viability, T/C [13] of 15.9%, a viability, T/C [14] of 21.2% and a viability, T/C [15] of 23.5%. It also gave a viability, T/C [16] of 35.6%, a viability, T/C [17] of 2.54% and a viability, T/C [18] of 5.71%. It also gave a viability, T/C [19] of 14.5%, a viability, T/C [20] of 14.5% and a viability, T/C [21] of 20.1%. For the same molecule, the viability, T/C [22] was 30.4%, the viability, T/C [23] was 2.68% and the viability, T/C [24] was 6.01%. For the same molecule, the viability, T/C [25] was 8.49%, the viability, T/C [26] was 11.9% and the viability, T/C [27] was 15.1%. For the same molecule, the viability, T/C [28] was 30.3%, the viability, T/C [29] was 3.16% and the viability, T/C [30] was 6.24%. The viability, T/C [31] was 8.25%, the viability, T/C [32] was 12.6% and the viability, T/C [33] was 14.8%. For the same molecule, the viability, T/C [34] was 25.4%, the viability, T/C [35] was 2.42% and the viability, T/C [36] was 4.74%.
